In US9981959B2, “Thiazolyl and oxazolyl urea, thiourea, guanidine and cyanoguanidine compounds as TrkA kinase inhibitors” (Array BioPharma Inc., priority 2012, dated 2018) one finds IC50 data, which are given here for four compounds.

Where only a bound is given, the exact number is not on record here.

TrkA, sequence (P04629 440-796 limits assumed): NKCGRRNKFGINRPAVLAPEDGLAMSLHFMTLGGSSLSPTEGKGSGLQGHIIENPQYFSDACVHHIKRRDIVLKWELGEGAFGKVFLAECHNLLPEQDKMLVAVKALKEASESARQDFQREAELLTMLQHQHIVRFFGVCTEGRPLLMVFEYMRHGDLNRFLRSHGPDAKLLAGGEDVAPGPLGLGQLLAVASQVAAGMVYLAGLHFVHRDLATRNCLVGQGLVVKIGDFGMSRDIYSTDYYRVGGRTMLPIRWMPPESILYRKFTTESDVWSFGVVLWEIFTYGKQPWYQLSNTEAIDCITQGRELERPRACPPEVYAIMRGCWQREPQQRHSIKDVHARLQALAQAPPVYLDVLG

The target in the assay is TrkA (Homo sapiens, UniProt P04629). In words: TrkA LanthaScreen Eu Kinase Binding Assay. Also noted: 6HIS tagged cytoplasmic domain from Invitrogen, Cat. No. PV3144; purchased Invitrogen PV3144. As to conditions: averaged IC50; TR-FRET binding, 60 min, 22° C.; read-out: TrkA enzyme IC50. As for the experimental part:
TrkA binding activity was determined in a TrkA LanthaScreen™ Eu Kinase Binding Assay. 5 nM His-tagged recombinant human TrkA (6HIS tagged cytoplasmic domain from Invitrogen, Cat. No. PV3144) was incubated with 4 nM Alexa-Fluor® Tracer 236 (Invitrogen Cat. No. PV5592), 2 nM biotinylated anti-His (Invitrogen Cat. No. PV6090), and 2 nM europium-labeled Streptavidin (Invitrogen Cat. No. PV5899), in buffer (25 mM MOPS, pH 7.5, 5 mM MgCl2, 0.005% Triton X-100). Three fold serial dilutions of compounds of the invention in DMSO were added to a final percentage of 2% DMSO. After 60-minute incubation at 22° C., the reaction was measured using the EnVision mutlimode plate reader (PerkinElmer) via TR-FRET dual wavelength detection at […]. The percent of control was calculated using a ratiometric emission factor. The IC50 values were determined by fitting a four parameter model to the percent of control data.
Table A provides averaged IC50 values for compounds of the invention when tested in the assay of Example A, where A represents an averaged IC50 value <100 nM; and B represents an averaged IC50 value from 100 to 1,000 nM.
(In general: Time-resolved FRET reads energy transfer from a long-lived donor to a nearby acceptor.)
The term IC50 denotes the concentration that inhibits the measured activity by half. On to `Cc1nc(-c2ccccc2)c(NC(=O)Nc2c(C)c(-c3cnn(C)c3)nn2-c2ccccc2)s1` [Example 1, 1-(1′,4-dimethyl-1-phenyl-1H,1′H-[3,4′-bipyrazol]-5-yl)-3-(2-methyl-4-phenylthiazol-5-yl)urea], for which the 50% inhibitory concentration (IC50) was less than 100 nM. On to `Cc1nc(-c2ccccc2)c(NC(=O)Nc2c(C)c(-c3cnn(C)c3)nn2-c2ccccc2)o1` [Example 3, 1-(1′,4-dimethyl-1-phenyl-1H, 1′H-[3,4′-bipyrazol]-5-yl)-3-(2-methyl-4-phenyloxazol-5-yl)urea], for which the IC50 is 100 to 1000 nM. `Cc1c(C(N)=O)nn(-c2ccccc2)c1NC(=O)Nc1sc(C(F)(F)F)nc1-c1ccccc1` [Example 4, 4-methyl-1-phenyl-5-(3-(4-phenyl-2-(trifluoromethyl)thiazol-5-yl)ureido)-1H-pyrazole-3-carboxamide]: the half-maximal inhibitory concentration (IC50) lay within 100 to 1000 nM. For the compound `Cc1c(OCCO)nn(-c2ccccc2)c1NC(=O)Nc1sc(C(F)(F)F)nc1-c1ccccc1` [Example 5, 1-(3-(2-hydroxyethoxy)-4-methyl-1-phenyl-1H-pyrazol-5-yl)-3-(4-phenyl-2-(trifluoromethyl)thiazol-5-yl)urea], the IC50 is less than 100 nM.
